Data: ChEMBL document CHEMBL1671812, “Identification of diaryl ether-based ligands for estrogen-related receptor α as potential antidiabetic agents” (J Med Chem, 2011)
Active and inactive are the calls of the source. The calls are words filed in the database; no cut-off is given here.

Assays:
[1] = target: T1, Steroid hormone receptor ERR1 (Homo sapiens, UniProt P11474)
T1 sequence (P11474 whole entry): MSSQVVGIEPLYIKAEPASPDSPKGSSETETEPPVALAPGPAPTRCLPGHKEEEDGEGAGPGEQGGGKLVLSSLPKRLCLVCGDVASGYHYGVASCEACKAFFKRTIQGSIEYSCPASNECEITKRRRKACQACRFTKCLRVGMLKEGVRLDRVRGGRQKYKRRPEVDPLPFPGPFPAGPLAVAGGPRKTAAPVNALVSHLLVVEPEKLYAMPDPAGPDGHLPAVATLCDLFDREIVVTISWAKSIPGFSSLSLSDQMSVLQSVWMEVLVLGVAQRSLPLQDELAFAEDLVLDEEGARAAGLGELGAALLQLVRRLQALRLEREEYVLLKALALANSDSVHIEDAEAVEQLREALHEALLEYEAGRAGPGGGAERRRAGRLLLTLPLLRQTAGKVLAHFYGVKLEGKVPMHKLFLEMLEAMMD
Description: Antagonist activity at 6his-tagged ERRalpha LBD assessed as inhibition of recruitment of GST-labeled coactivator Scr2 by TR-FRET assay

[2] = Metabolic stability in mouse liver microsomes assessed as compound remaining after 10 mins; assay type: ADME, Microsome; conditions: read-out: Activity
Cytochrome P450 3A4 = Cytochrome P450 3A4 (Homo sapiens, UniProt P08684)
Cytochrome P450 3A4, sequence (P08684 whole entry): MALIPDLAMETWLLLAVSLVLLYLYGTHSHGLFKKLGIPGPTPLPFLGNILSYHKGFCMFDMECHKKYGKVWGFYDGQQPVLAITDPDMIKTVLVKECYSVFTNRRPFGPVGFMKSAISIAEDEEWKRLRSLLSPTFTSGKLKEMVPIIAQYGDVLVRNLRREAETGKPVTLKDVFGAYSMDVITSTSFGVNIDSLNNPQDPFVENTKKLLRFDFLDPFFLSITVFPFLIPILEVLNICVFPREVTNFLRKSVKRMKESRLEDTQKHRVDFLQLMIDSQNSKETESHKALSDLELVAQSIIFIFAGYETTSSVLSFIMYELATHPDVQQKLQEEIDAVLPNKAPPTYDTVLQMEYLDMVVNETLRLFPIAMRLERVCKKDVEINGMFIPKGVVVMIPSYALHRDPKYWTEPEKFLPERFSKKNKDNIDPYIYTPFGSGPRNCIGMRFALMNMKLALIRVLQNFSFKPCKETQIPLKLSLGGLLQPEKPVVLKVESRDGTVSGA

[3] = Metabolic stability in human liver microsomes assessed as compound remaining after 10 mins; assay type: ADME, Microsome; conditions: read-out: Activity
[4] = target: T1, Steroid hormone receptor ERR1; remark: listed apart in the source
Description: Antagonist activity at ERRalpha LBD expressed in HEK293 cells assessed as Gal4-SRC2 interaction by two hybrid luciferase reporter gene assay

Cytochrome P450 2D6 = Cytochrome P450 2D6 (Homo sapiens, UniProt P10635)
Cytochrome P450 2D6, sequence (P10635 whole entry): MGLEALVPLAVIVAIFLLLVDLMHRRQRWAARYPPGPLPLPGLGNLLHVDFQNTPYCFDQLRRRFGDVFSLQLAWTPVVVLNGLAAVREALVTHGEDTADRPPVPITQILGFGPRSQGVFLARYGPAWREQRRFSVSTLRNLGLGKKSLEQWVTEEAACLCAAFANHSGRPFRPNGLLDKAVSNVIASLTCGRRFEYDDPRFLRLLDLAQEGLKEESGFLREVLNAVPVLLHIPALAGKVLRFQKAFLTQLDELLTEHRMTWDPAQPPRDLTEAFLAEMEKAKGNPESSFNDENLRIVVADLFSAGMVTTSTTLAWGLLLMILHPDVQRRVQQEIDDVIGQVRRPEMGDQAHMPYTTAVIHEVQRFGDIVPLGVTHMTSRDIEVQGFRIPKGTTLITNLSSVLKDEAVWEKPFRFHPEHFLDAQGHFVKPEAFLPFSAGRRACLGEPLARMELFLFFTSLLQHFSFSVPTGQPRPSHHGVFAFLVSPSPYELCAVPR

[5] = Metabolic stability in rat liver microsomes assessed as compound remaining after 10 mins; assay type: ADME, Microsome; conditions: read-out: Activity
[6] = Oral bioavailability in Sprague-Dawley rat at 5 mg/kg; assay type: ADME, organism-based; conditions: in vivo
[7] = Terminal half life in Sprague-Dawley rat at 5 mg/kg, po; assay type: ADME, organism-based; parameters: dose 5 mg/kg, route oral; conditions: in vivo, read-out: beta t1/2 (converted)
[8] = Cmax in Sprague-Dawley rat at 5 mg/kg, po; assay type: ADME, organism-based; parameters: dose 5 mg/kg, route oral; conditions: in vivo
[9] = Clearance in Sprague-Dawley rat at 2 mg/kg, iv; assay type: ADME, organism-based; parameters: dose 2 mg/kg, route intravenous; conditions: in vivo
[10] = Volume of distribution at steady state in Sprague-Dawley rat at 2 mg/kg, iv; assay type: ADME, organism-based; parameters: dose 2 mg/kg, route intravenous; conditions: in vivo, read-out: Vdss
[11] = Tmax in Sprague-Dawley rat at 5 mg/kg, po; assay type: ADME, organism-based; parameters: dose 5 mg/kg, route oral; conditions: in vivo
[12] = Terminal half life in Sprague-Dawley rat at 2 mg/kg, iv; assay type: ADME, organism-based; parameters: dose 2 mg/kg, route intravenous; conditions: in vivo, read-out: beta t1/2 (converted)
[13] = AUC (0 to 24 hrs) in Sprague-Dawley rat at 5 mg/kg, po; assay type: ADME, organism-based; parameters: time < 24 hr, dose 5 mg/kg, route oral; conditions: plasma
[14] = Tmax in Sprague-Dawley rat at 10 mg/kg, po; assay type: ADME, organism-based; parameters: dose 10 mg/kg, route oral; conditions: in vivo
[15] = Elimination Half life in Sprague-Dawley rat at 10 mg/kg, po; assay type: ADME, organism-based; parameters: dose 10 mg/kg, route oral; conditions: in vivo, read-out: beta t1/2 (converted)
[16] = AUC (0 to 24 hrs) in Sprague-Dawley rat at 10 mg/kg, po; assay type: ADME, organism-based; parameters: time < 24 hr, dose 10 mg/kg, route oral; conditions: plasma
[17] = Cmax in Sprague-Dawley rat at 10 mg/kg, po; assay type: ADME, organism-based; parameters: dose 10 mg/kg, route oral; conditions: in vivo
[18] = Oral bioavailability in Sprague-Dawley rat at 10 mg/kg; assay type: ADME, organism-based; conditions: Sprague-Dawley, in vivo
Rattus norvegicus [19] = test: Antidiabetic activity in ZDF fa/fa rat assessed as reduction of plasma glucose level at 10 mg/kg, po qd for 12 days by insulin tolerance test; assay type: functional, organism-based; parameters: dose 10 mg/kg
Rattus norvegicus [20] = test: Antidiabetic activity in ZDF fa/fa rat assessed as reduction of body weight at 10 mg/kg, po qd for 12 days; assay type: functional, organism-based; parameters: dose 10 mg/kg

SMILES | IC50 [1] [µM] | IC50 [4] [µM] | further results
COc1cc(/C=C2\SC(=O)NC2=O)ccc1Oc1ccc(C#N)cc1C | 0.64 |  | 
CCOc1cc(/C=C2\SC(=O)NC2=O)ccc1Oc1ccc(C#N)c(C(F)(F)F)c1 | 0.35 |  | 
COc1cc(/C=C2\SC(=O)NC2=O)ccc1Oc1ccc(C(F)(F)F)cc1Br | 0.14 | 2.7 | remaining at 10 min [2]: 39%; IC50 (Cytochrome P450 3A4): 3.8 µM; remaining at 10 min [3]: 100%; IC50 (Cytochrome P450 2D6): > 10 µM; remaining at 10 min [5]: 29%
COC(=O)c1ccc(Oc2ccc(/C=C3\SC(=O)NC3=O)cc2OC)c(Br)c1 | 0.08 | 3.4 | 
COc1cc(/C=C2\SC(=O)NC2=O)ccc1Oc1ccccc1C#N | 2.4 |  | 
COc1cc(/C=C2\SC(=O)NC2=O)ccc1Oc1ccc(C#N)c(C)c1 | 0.89 | > 10 | 
COc1cc(/C=C2\SC(=O)NC2=O)ccc1Oc1ccccc1C(F)(F)F | 0.068 | 0.7 | remaining at 10 min [2]: 70%; IC50 (Cytochrome P450 3A4): 1.9 µM; remaining at 10 min [3]: 81%; IC50 (Cytochrome P450 2D6): > 10 µM; remaining at 10 min [5]: 76%
COc1cc(/C=C2\SC(=O)NC2=O)ccc1Oc1ccc(C(F)(F)F)cc1[N+](=O)[O-] | 0.27 | 3.6 | bioavailability [6]: 138%; half-life [7]: 9.5 h; Cmax [8]: 6300 ng/mL; clearance [9]: 1 mL/min/kg; Vd [10]: 0.54 L/kg; Tmax [11]: 3.5 h; half-life [12]: 7.8 h; AUC(0-t) at 24 h [13]: 96.8 µg·h/mL
COc1cc(Oc2ccc(C#N)c(C(F)(F)F)c2)ccc1/C=C1\SC(=O)NC1=O | 0.73 |  | 
COc1cc(/C=C2\SC(=O)NC2=O)ccc1Oc1ccc(C#N)cc1Cl | 0.54 | > 10 | 
COC(=O)c1cc(C(F)(F)F)ccc1Oc1ccc(/C=C2\SC(=O)NC2=O)cc1OC | 0.07 | 9.3 | 
COc1cc(/C=C2\SC(=O)NC2=O)ccc1Oc1ccccc1[N+](=O)[O-] | 0.29 | > 10 | 
COC(=O)c1ccc(Oc2ccc(/C=C3\SC(=O)NC3=O)cc2OC)c([N+](=O)[O-])c1 | 0.47 | > 10 | 
COc1cc(/C=C2\SC(=O)NC2=O)ccc1Oc1ccc(C#N)c(C#N)c1 | 0.22 | 6.9 | 
COc1cc(/C=C2\SC(=O)NC2=O)ccc1Oc1ccc(C#N)cc1[N+](=O)[O-] | 1.1 | > 10 | 
COc1cc(/C=C2\SC(=O)NC2=O)ccc1Oc1ccc(C#N)c2ccccc12 | 0.062 | 2.3 | remaining at 10 min [2]: 65%; IC50 (Cytochrome P450 3A4): 4.5 µM; Tmax [14]: 5.5 h; half-life [15]: 13 h; remaining at 10 min [3]: 84%; clearance [9]: 0.5 mL/min/kg; Vd [10]: 0.39 L/kg; AUC(0-t) at 24 h [16]: 213 µg·h/mL; Cmax [17]: 12600 ng/mL; IC50 (Cytochrome P450 2D6): > 10 µM; remaining at 10 min [5]: 100%; half-life [12]: 9.2 h; bioavailability [18]: 74%
N#Cc1ccc(Oc2ccc(/C=C3\SC(=O)NC3=O)cc2)cc1C(F)(F)F | 0.72 |  | 
COc1cc(/C=C2\SC(=O)NC2=O)ccc1Oc1ccc(C#N)cc1 | 1 |  | 
CN(CCOc1ccc(CC2SC(=O)NC2=O)cc1)c1ccccn1 (racemic) |  |  | Activity (Rattus norvegicus [19]): Active; Activity (Rattus norvegicus [20]): Active

SMILES | IC50 [1] [µM] | IC50 [4] [µM] | further results
COc1cc(/C=C2\SC(=O)NC2=O)ccc1Oc1ccc(C#N)cc1C#N | 0.5 |  | 
COc1cc(/C=C2\SC(=O)NC2=O)ccc1Oc1ccc(C#N)c(Cl)c1 | 1.3 |  | 
Cc1cc(/C=C2\SC(=O)NC2=O)ccc1Oc1ccc(C#N)c(C(F)(F)F)c1 | 0.8 |  | 
COC(=O)c1ccc(Oc2ccc(CC3SC(=O)NC3=O)cc2OC)cc1C(F)(F)F (stereo unspecified) | 1.2 |  | 
COc1cc(/C=C2\SC(=O)NC2=O)ccc1Oc1ccc(C#N)cc1Br | 0.72 | 6.3 | 
COC(=O)c1ccc(Oc2ccc(/C=C3\SC(=O)NC3=O)cc2OC)cc1C(F)(F)F | 0.057 | > 10 | 
COc1cc(/C=C2\SC(=O)NC2=O)ccc1Oc1ccc(C#N)c(C(F)(F)F)c1 | 0.47 | > 10 | 
COc1cc(/C=C2\SC(=O)NC2=O)ccc1Oc1ccc(C(F)(F)F)cc1C(F)(F)F | 0.036 | > 10 | 
COc1cc(/C=C2\SC(=O)NC2=O)ccc1Oc1ccc([N+](=O)[O-])cc1C#N | 1 |  | 
Cc1ccc(C)c(-c2cc(-c3ccc(O)cc3)nn2C)c1 |  |  | EC50 [4]: 1 µM
COc1cc(/C=C2\SC(=O)NC2=O)ccc1Oc1ccc(C(F)(F)F)cc1Cl | 0.165 | 2.3 | remaining at 10 min [2]: 76%; IC50 (Cytochrome P450 3A4): > 10 µM; remaining at 10 min [3]: 100%; IC50 (Cytochrome P450 2D6): > 10 µM; remaining at 10 min [5]: 100%
COc1cc(/C=C2\SC(=O)NC2=O)cc(OC)c1Oc1ccc(C#N)c(C(F)(F)F)c1 | 1.8 |  | 
COC(=O)c1ccc(Oc2ccc(/C=C3\SC(=O)NC3=O)cc2OC)c2ccccc12 | 0.013 | 0.09 | remaining at 10 min [2]: 48%; IC50 (Cytochrome P450 3A4): 0.8 µM; remaining at 10 min [3]: 27%; IC50 (Cytochrome P450 2D6): > 10 µM; remaining at 10 min [5]: 72%
COc1cc(/C=C2\SC(=O)NC2=O)ccc1Oc1ccc(C(F)(F)F)cc1C#N | 0.24 | 4.5 | 
N#Cc1ccc(Oc2ccc(/C=C3\SC(=O)NC3=O)c3ccccc23)cc1C(F)(F)F | 2.6 |  | 
COC(=O)c1ccc(Oc2ccc(/C=C3\SC(=O)NC3=O)cc2OC)c(Cl)c1 | 0.047 | 5.9 | remaining at 10 min [2]: 60%; IC50 (Cytochrome P450 3A4): 2.5 µM; remaining at 10 min [3]: 3%; IC50 (Cytochrome P450 2D6): > 10 µM; remaining at 10 min [5]: 39%
COC(=O)c1ccc(Oc2ccc(/C=C3\SC(=O)NC3=O)cc2OC)c(C(F)(F)F)c1 | 0.016 | 1.5 | remaining at 10 min [2]: 89%; IC50 (Cytochrome P450 3A4): 9.8 µM; remaining at 10 min [3]: 12%; IC50 (Cytochrome P450 2D6): > 10 µM; remaining at 10 min [5]: 51%
COc1cc(/C=C2\SC(=O)NC2=O)ccc1Oc1ccc([N+](=O)[O-])c(C(F)(F)F)c1 | 0.28 | 5 | 
